Measurements from patent publication EP1918289A2, “Crystalline fluoroquinolone arginine salt form” (Wockhardt Limited, priority 2002, dated 2005).

How the values were obtained:
[1] = antibacterial activity (minimum inhibitory concentration, MIC); conditions: compared with the R-(+)- and RS-(±)- acids
[2] = hygroscopicity (exposure or storage at relative humidity, gravimetric); conditions: on exposure at a relative humidity of 41%

With `C[C@H]1CCc2c(N3CCC(O)CC3)c(F)cc3c(=O)c(C(=O)O)cn1c23` the antimicrobial activity [1] was “more potent”.
For “S-(-)-9-fluoro-6,7-dihydro-8-(4-hydroxypiperidin-1-yl)-5-methyl-1-oxo-1 H,5H-benzo[i,j] quinolizine-2-carboxylic acid, L-arginine salt 0.25 hydrate”, the hygroscopicity [2] was “highly hygroscopic and turn into syrups”.
With “S-(-)-9-fluoro-6,7-dihydro-8-(4-hydroxypiperin-1-yl)-5-methyl-1-oxo-1H,5H-benzo[i,j] quinolizine-2-carboxylic acid, L-arginine salt, 0.75 hydrate” the hygroscopicity [2] was “highly hygroscopic and turn into syrups”.
